# Where two headings read alike, the source gives them in different places.
# Key:
# Type in all cases: biochemical
# TACE = biological target: T1, TACE (Homo sapiens, UniProt P78536); test: TACE inhibition experiment (in vitro)
# T1 construct: made in house; host or cells: mammalian cells or insect cells
# Human MMP1 = biological target: T2, Human MMP1 (Homo sapiens, UniProt P03956); test: MMP1 inhibition experiment; conditions: read-out: IC50 value MMP-1
# T2 construct: purchased Calbiochem 444208
# T2 sequence (P03956 100-469): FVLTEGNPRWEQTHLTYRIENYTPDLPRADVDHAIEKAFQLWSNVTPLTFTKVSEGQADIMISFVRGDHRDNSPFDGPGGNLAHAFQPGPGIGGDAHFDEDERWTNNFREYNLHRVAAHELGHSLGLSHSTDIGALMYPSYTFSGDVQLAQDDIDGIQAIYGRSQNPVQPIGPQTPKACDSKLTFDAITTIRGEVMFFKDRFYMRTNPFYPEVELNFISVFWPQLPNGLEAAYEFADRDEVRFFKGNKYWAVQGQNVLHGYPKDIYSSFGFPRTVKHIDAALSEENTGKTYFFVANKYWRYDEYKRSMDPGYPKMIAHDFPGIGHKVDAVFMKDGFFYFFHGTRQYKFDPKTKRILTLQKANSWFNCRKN
# Human MMP2 = biological target: T3, Human MMP2 (Homo sapiens, UniProt P08253); test: MMP2 inhibition experiment; conditions: concentration required for 50% inhibition of enzyme activity; read-out: IC50 value MMP-2
# T3 construct: purchased Calbiochem 444213
# T3 sequence (P08253 110-660): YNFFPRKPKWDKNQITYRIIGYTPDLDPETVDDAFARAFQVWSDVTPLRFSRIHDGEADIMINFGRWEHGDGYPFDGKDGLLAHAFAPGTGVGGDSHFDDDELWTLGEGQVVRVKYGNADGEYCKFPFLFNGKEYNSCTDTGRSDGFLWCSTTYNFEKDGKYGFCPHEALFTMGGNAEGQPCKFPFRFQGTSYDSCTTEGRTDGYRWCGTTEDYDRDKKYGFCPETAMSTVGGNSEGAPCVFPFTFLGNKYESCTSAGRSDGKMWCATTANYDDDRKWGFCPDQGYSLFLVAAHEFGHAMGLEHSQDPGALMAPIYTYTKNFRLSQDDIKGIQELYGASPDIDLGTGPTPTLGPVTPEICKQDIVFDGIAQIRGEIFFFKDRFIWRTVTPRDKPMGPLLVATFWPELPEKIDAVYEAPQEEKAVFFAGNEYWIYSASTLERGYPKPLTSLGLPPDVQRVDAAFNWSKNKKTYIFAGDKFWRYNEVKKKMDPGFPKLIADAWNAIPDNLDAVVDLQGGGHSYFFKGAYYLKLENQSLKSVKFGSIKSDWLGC
# Human MMP3 = biological target: T4, Human MMP3 (Homo sapiens, UniProt P08254); test: MMP3 inhibition experiment; conditions: concentration required for 50% inhibition of enzyme activity; read-out: IC50 value MMP-3
# T4 construct: purchased Calbiochem 444217
# T4 sequence (P08254 100-272 limits assumed): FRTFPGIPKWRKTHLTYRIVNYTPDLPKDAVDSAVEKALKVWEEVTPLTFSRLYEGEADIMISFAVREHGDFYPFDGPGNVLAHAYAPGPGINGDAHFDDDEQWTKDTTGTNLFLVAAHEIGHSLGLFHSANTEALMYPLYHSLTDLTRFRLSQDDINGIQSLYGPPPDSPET
# Protocol: (§1) MMP inhibition experiment may be carried out using a fluorescent synthetic substrate according to, for example, the methods of Bickett et al. (D. Mark Bickett et al., Anal. Biochem., 1993, 212, 58-64) and Nagase et al. (H. Nagase et al., J. Biol. Chem., 1994, 269, 20952-20957). The methods of inhibition experiments carried out for various MMPs are described below.
# Human MMP3 (Calbiochem #444217) in 90 μL (5 ng) prepared in the assay buffer A was added to 90 μL of 20 μM fluorescent substrate NFF-3(MOCAc-Arg-Pro-Lys-Pro-Val-Glu-Nva-Trp-Arg-Lys(Dnp)-NH2, Peptide Institute, Inc., #3168-v) prepared in the assay buffer B, followed by reaction for 5 hours at 37° C.
# Human MMP9 = biological target: T5, Human MMP9 (Homo sapiens, UniProt P14780); test: MMP9 inhibition experiment; conditions: read-out: IC50 value MMP-9
# T5 construct: purchased Calbiochem 444231
# T5 sequence (P14780 107-707 limits assumed): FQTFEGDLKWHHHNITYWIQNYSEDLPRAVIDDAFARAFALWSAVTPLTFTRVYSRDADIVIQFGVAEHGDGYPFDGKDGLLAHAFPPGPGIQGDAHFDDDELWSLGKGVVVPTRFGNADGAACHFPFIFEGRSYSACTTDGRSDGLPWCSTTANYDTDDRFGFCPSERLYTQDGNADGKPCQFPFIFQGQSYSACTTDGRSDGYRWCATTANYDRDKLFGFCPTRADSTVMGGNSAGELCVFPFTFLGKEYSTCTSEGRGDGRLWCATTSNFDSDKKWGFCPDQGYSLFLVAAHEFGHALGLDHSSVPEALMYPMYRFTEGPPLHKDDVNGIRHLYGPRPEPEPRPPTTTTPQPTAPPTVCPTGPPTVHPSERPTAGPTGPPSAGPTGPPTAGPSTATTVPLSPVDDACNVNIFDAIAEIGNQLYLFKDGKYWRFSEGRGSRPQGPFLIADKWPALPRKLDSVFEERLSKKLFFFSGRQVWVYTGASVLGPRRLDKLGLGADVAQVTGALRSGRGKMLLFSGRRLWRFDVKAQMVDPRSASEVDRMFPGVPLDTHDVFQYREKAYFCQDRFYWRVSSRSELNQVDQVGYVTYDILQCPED
# Human MMP13 = biological target: T6, Human MMP13 (Homo sapiens, UniProt P45452); test: MMP13 inhibition experiment; conditions: concentration required for 50% inhibition of enzyme activity; read-out: IC50 value MMP-13
# T6 construct: purchased Chemicon CC068
# Human MMP14 = biological target: T7, Human MMP14 (Homo sapiens, UniProt P50281); test: MMP14 inhibition experiment; conditions: concentration required for 50% inhibition of enzyme activity; read-out: IC50 value MMP-14
# T7 construct: purchased Biogenesis or Calbiochem 5980-1461 or 475935
# Protocol: as §1
# Human MMP14 (Biogenesis #5980-1461 or Calbiochem #475935) in amount of 90 μL (4 ng) prepared in the assay buffer A was added to 90 μL of 20 μM fluorescent substrate (Dnp-Pro-Cha-Gly-Cys(Me)-His-Ala-Lys(Nma)-NH2) prepared in the assay buffer B, followed by reaction for 5 hours at 37° C.
# Human MMP17 = biological target: T8, Human MMP17 (Homo sapiens, UniProt Q9ULZ9); test: MMP17 inhibition test; conditions: concentration required for 50% inhibition of enzyme activity; read-out: IC50 value MMP-17
# T8 construct: purchased Calbiochem 475940
# T8 sequence (Q9ULZ9 126-300 limits assumed): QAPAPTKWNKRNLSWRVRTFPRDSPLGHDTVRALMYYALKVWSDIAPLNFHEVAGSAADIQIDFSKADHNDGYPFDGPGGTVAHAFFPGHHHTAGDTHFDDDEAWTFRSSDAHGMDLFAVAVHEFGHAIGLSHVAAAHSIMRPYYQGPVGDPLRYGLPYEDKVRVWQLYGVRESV
# [1] = concentration required for 50% inhibition of enzyme activity
# T1 sequence (P78536 215-824): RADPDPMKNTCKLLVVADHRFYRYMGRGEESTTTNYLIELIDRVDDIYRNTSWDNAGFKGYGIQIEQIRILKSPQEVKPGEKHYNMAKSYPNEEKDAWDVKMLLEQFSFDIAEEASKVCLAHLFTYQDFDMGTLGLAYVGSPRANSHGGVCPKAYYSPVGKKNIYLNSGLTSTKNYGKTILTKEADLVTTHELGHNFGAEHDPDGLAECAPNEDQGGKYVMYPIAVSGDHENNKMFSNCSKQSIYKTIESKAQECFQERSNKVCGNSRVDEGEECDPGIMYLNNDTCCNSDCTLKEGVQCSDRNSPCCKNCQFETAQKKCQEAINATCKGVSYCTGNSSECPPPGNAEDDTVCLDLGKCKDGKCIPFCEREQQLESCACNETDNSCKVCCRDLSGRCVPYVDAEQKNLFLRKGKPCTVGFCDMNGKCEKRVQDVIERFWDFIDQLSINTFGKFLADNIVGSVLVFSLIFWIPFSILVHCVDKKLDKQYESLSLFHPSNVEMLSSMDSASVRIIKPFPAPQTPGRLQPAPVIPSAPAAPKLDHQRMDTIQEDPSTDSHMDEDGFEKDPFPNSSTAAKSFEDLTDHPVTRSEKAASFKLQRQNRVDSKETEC
IC50 (TACE),IC50 (Human MMP1),IC50 (Human MMP2),IC50 (Human MMP3),IC50 (Human MMP9),IC50 (Human MMP13),IC50 (Human MMP14),IC50 (Human MMP17),IC50 (TACE; [1]),IC50 (Human MMP9; [1]),SMILES
0.13 µM,80 µM,20 µM,25 µM,40 µM,16 µM,33 µM,30 µM,,,Cc1cc(Cl)cc(COc2ccc(S(=O)(=O)CC(C=C3CCC(=NO)CC3)N(O)C=O)cc2)c1 (stereo not shown) [Example I-102]
0.05 µM,> 100 µM,4.1 µM,30 µM,> 100 µM,8 µM,> 100 µM,30 µM,,,Cc1cc(COc2ccc(S(=O)(=O)CC(C=C3CCC(=NO)CC3)N(O)C=O)cc2)cc(C)n1 (stereo not shown) [Example I-111]
,45 µM,6 µM,1.2 µM,,5 µM,23 µM,1.1 µM,0.06 µM,12 µM,Cc1cc(COc2ccc(S(=O)(=O)CC(CC3CCC4(CC3)OCCO4)N(O)C=O)cc2)c2ccccc2n1 (stereo not shown) [Example I-10]
0.1 µM,> 100 µM,7 µM,23 µM,> 100 µM,10 µM,> 100 µM,30 µM,,,Cc1cc(COc2ccc(S(=O)(=O)CC(C=C3CCC(=O)CC3)N(O)C=O)cc2)cc(C)n1 (stereo not shown) [Example I-114]
0.063 µM,> 100 µM,1.3 µM,4 µM,40 µM,2 µM,60 µM,4 µM,,,Cc1cc(COc2ccc(S(=O)(=O)CC(CC3CCC(=NO)CC3)N(O)C=O)cc2)cc(C)n1 (stereo not shown) [Example I-112]
0.007 µM,> 100 µM,40 µM,10 µM,> 100 µM,40 µM,> 100 µM,5.5 µM,,,Cc1cc(COc2ccc(S(=O)(=O)CC(C(F)=C3CCOCC3)N(O)C=O)cc2)c2ccccc2n1 (stereo not shown) [Example I-16]
0.07 µM,45 µM,30 µM,3 µM,28 µM,10 µM,35 µM,2 µM,,,CON=C1CCC(C(CS(=O)(=O)c2ccc(OCc3cc(C)nc4ccccc34)cc2)N(O)C=O)CC1 (stereo not shown) [Example I-12]
0.4 µM,> 100 µM,43 µM,35 µM,33 µM,35 µM,40 µM,40 µM,,,Cc1cc(C)cc(COc2ccc(S(=O)(=O)CC(C=C3CCC4(CC3)OCCO4)N(O)C=O)cc2)c1 (stereo not shown) [Example I-91]
1.1 µM,40 µM,5 µM,6 µM,20 µM,18 µM,25 µM,13 µM,,,Cc1cc(Cl)cc(COc2ccc(S(=O)(=O)CC(CC3CCC4(CC3)OCCO4)N(O)C=O)cc2)c1 (stereo not shown) [Example I-99]
0.13 µM,60 µM,2 µM,8 µM,70 µM,2.3 µM,60 µM,6 µM,,,Cc1cc(COc2ccc(S(=O)(=O)CC(CC3CCC(=O)CC3)N(O)C=O)cc2)cc(C)n1 (stereo not shown) [Example I-113]
0.005 µM,60 µM,30 µM,3 µM,50 µM,15 µM,33 µM,2.1 µM,,,Cc1cc(COc2ccc(S(=O)(=O)CC(c3ccccc3C)N(O)C=O)cc2)c2ccccc2n1 (stereo not shown) [Example I-23]
0.3 µM,> 100 µM,43 µM,60 µM,60 µM,35 µM,> 100 µM,40 µM,,,Cc1cc(C)cc(COc2ccc(S(=O)(=O)CC(C=C3CCC(=O)CC3)N(O)C=O)cc2)c1 (stereo not shown) [Example I-92]
0.022 µM,> 100 µM,20 µM,4.4 µM,> 100 µM,42 µM,> 100 µM,0.65 µM,,,Cc1cc(COc2ccc(S(=O)(=O)CC(CN3CCN(CC(C)C)CC3)N(O)C=O)cc2)c2ccccc2n1 (stereo not shown) [Example I-46]
0.2 µM,43 µM,4 µM,7 µM,23 µM,6 µM,25 µM,7 µM,,,Cc1cc(Cl)cc(COc2ccc(S(=O)(=O)CC(CC3CCC(=NO)CC3)N(O)C=O)cc2)c1 (stereo not shown) [Example I-100]
0.021 µM,60 µM,40 µM,3 µM,28 µM,10 µM,40 µM,0.7 µM,,,Cc1cc(COc2ccc(S(=O)(=O)CC(C3CCC(=NOC=O)CC3)N(O)C=O)cc2)c2ccccc2n1 (stereo not shown) [Example I-13]
,> 100 µM,,6.3 µM,,22 µM,43 µM,2.5 µM,0.0035 µM,50 µM,"Cc1cc(COc2ccc(S(=O)(=O)CC(C=C3CCC(=O)CC3)N(O)C=O)cc2)c2ccccc2n1 (stereo not shown) [Example I-3, N-Hydroxy-N-[2-{4-(2-methylquinolin-4-ylmethoxy)benzenesulfonyl}-1-(4-oxocyclohexylidenemethyl)ethyl]formamide]"
0.2 µM,43 µM,,20 µM,30 µM,10 µM,40 µM,6 µM,,,"C=C1CCC(C(CS(=O)(=O)c2ccc(OCc3cc(C)cc(OC)c3)cc2)N(O)C=O)CC1 (stereo not shown) [Example I-7, N-Hydroxy-N-[2-{4-(3-methoxy-5-methylbenzyloxy)benzenesulfonyl)-1-(4-methylenecyclohexyl)ethyl]formamide]"
0.08 µM,> 100 µM,,2 µM,35 µM,2.2 µM,40 µM,2 µM,,,"COc1cc(C)cc(COc2ccc(S(=O)(=O)CC(C3CCC4(CC3)OCCO4)N(O)C=O)cc2)c1 (stereo not shown) [Example I-8, N-[1-(1,4-Dioxaspiro[4.5]dec-8-yl)-2-{4-(3-methoxy-5-methylbenzyloxy)benzenesulfonyl}ethyl]-N-hydroxyformamide]"
0.43 µM,33 µM,,20 µM,22 µM,10 µM,25 µM,5 µM,,,"C=C1CCC(C(CS(=O)(=O)c2ccc(OCc3cc(C)cc(C)c3)cc2)N(O)C=O)CC1 (stereo not shown) [Example I-5, N-[2-{4-(3,5-Dimethylbenzyloxy)benzenesulfonyl}-1-(4-methylenecyclohexyl)ethyl]-N-hydroxyformamide]"
